Measured values reported in PubChem BioAssay (NCI).
Where “and” joins values, the source holds several entries; their conditions need not be identical. Identical values can stand only once.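 Exposure lasted 48 hours, with cells grown in 96-well plates and compounds tested at five concentrations. GI50 marks 50% less growth. At the TGI there is no net growth.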

Tests used:
Test in all cases: inhibition of tumour cell growth, NCI panel, 48 h
U251 CNS = tested on: U251 CNS
K-562 leukemia = tested on: K-562 leukemia
SNB-75 CNS = tested on: SNB-75 CNS
OVCAR-5 ovarian = tested on: OVCAR-5 ovarian
HCC-2998 colon = tested on: HCC-2998 colon
A498 renal = tested on: A498 renal
NCI-H460 lung = tested on: NCI-H460 lung
MDA-MB-231 breast = tested on: MDA-MB-231 breast
SN12C renal = tested on: SN12C renal
SR leukemia = tested on: SR leukemia

Row | SMILES | GI50 (U251 CNS) | TGI (U251 CNS) [µM] | GI50 (K-562 leukemia) | TGI (K-562 leukemia) [µM] | GI50 (SNB-75 CNS) | TGI (SNB-75 CNS) | TGI (OVCAR-5 ovarian) [µM] | GI50 (HCC-2998 colon) [µM] | TGI (HCC-2998 colon) [µM] | GI50 (A498 renal) | TGI (A498 renal) | GI50 (NCI-H460 lung) | TGI (NCI-H460 lung) | GI50 (MDA-MB-231 breast) | TGI (MDA-MB-231 breast) [µM] | GI50 (SN12C renal) | TGI (SN12C renal) [µM] | GI50 (SR leukemia) | TGI (SR leukemia) | GI50 (OVCAR-5 ovarian)
1 | Cc1ccc2c(c1)sc(-c1ccc(N(C)C)cc1)[n+]2C | 0.467 µM | > 76 | 0.242 µM | > 50.3 | 4.55 µM | 34.8 µM | > 100 | 1.51 | 19 | 0.785 µM | 8.16 µM | 1.18 µM | 8.25 µM | 2.75 µM | 21.1 | 2.71 µM | 42.8 | 0.125 µM | 19.4 µM | 
2 | O=C(Nc1ccc(Br)cc1)c1cc(Br)cc(Br)c1O | 2.79 µM | 23.1 | 3.1 µM | > 100 | 2.16 µM | 7.11 µM | 19.6 | 3.35 | 10.1 | 1.82 µM | 4.37 µM | 2.6 µM | 6.86 µM | 2.08 µM | 6.28 | 2.77 µM | 12.9 | 3.87 µM | > 100 µM | 2.7 µM
3 | Cn1cnc([N+](=O)[O-])c1Sc1ncnc2nc[nH]c12 | 13.9 µM and 27.7 µM | > 100 | 2.49 µM and 1.3 µM | > 100 | 0.461 µM and 3.03 µM | 17.1 µM and > 100 µM | > 100 | 5.64 | > 100 | 8.55 µM and 26.1 µM | 82 µM and > 100 µM | 6.58 µM and 16.5 µM | > 100 µM | 8.83 µM and 11.7 µM | > 100 | 20.5 µM and 36.4 µM | > 100 | 37.9 µM and 4.04 µM | > 100 µM | 8.42 µM and 53.2 µM
4 | CCCCS(=N)(=O)CC[C@H](N)C(=O)O (some centres undefined) | > 10000 µM | > 10000 | 11.3 µM | > 10000 | > 10000 µM | 5000 µM and > 10000 µM | > 10000 | > 10000 | > 10000 | > 10000 µM | 5000 µM and > 10000 µM | > 3940 µM | 5000 µM and > 10000 µM | > 10000 µM | > 10000 | > 10000 µM | > 10000 | 3980 µM | 5000 µM and > 10000 µM | > 10000 µM
